Assay in all cases: ADP-Glo kinase assay (Promega), % inhibition at […]
What all share (format): biochemical
For orientation: ADP-Glo turns the ADP formed in a reaction into a luminescent signal.

In one test the target is EGFR (Homo sapiens, UniProt P00533).
Test [1] addresses insulin-like growth factor 1 receptor (IGF1R) (Homo sapiens, UniProt P08069).
The next test deals with T1, HER2 (Homo sapiens, UniProt P04626).
T1 construct: gene ERBB2
T1 sequence (P04626 23-1255): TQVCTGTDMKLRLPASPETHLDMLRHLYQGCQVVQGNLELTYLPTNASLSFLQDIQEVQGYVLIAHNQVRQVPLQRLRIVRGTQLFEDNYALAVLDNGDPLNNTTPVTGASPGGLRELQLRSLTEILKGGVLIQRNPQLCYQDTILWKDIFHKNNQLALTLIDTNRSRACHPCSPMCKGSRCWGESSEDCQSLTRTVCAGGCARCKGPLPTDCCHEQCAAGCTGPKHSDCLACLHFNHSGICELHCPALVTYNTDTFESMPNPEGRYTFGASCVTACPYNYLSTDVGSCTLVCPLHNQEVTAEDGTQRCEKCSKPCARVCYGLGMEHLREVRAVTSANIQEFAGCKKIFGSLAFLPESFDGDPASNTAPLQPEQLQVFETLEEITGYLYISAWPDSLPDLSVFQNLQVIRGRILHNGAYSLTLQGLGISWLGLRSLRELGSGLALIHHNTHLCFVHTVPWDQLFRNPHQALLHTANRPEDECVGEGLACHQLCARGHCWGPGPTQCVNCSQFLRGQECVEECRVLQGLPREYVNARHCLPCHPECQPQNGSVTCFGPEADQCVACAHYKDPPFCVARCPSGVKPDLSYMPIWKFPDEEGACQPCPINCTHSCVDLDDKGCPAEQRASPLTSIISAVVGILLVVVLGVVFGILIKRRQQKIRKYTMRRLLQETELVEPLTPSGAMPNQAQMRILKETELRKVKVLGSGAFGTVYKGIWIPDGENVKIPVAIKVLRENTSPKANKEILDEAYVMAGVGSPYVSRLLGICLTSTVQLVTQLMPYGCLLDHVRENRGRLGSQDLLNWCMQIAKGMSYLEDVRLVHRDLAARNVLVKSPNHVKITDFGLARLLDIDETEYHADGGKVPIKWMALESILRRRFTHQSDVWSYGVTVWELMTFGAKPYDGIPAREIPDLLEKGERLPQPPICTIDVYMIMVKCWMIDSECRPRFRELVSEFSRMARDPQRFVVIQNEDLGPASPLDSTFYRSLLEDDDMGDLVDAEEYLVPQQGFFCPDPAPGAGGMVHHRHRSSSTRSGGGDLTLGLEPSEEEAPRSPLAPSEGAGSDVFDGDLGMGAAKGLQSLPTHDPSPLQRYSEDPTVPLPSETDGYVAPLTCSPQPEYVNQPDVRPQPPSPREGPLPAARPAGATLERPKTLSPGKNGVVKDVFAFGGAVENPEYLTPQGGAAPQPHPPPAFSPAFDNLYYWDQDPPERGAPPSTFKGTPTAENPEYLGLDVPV

insulin-like growth factor 1 receptor (IGF1R), sequence (P08069 31-736): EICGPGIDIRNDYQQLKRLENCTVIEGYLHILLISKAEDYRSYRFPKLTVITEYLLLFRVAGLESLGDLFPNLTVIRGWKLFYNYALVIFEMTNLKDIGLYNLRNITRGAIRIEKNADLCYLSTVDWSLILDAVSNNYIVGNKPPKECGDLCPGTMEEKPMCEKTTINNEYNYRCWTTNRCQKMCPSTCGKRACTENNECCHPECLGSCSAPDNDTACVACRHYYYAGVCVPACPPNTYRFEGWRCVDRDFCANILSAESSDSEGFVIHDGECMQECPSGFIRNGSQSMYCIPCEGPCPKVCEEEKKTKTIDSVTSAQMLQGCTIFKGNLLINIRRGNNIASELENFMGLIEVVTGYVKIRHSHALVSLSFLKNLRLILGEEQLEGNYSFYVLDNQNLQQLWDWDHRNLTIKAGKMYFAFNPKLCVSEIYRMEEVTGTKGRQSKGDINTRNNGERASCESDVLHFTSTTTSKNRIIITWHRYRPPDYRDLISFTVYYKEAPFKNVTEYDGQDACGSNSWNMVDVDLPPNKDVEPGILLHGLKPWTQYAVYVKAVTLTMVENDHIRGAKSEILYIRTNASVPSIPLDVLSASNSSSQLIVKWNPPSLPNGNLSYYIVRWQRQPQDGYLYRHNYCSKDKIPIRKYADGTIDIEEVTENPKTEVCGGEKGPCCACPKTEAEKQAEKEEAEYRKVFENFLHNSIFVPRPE
insulin-like growth factor 1 receptor (IGF1R), sequence (P08069 741-1367): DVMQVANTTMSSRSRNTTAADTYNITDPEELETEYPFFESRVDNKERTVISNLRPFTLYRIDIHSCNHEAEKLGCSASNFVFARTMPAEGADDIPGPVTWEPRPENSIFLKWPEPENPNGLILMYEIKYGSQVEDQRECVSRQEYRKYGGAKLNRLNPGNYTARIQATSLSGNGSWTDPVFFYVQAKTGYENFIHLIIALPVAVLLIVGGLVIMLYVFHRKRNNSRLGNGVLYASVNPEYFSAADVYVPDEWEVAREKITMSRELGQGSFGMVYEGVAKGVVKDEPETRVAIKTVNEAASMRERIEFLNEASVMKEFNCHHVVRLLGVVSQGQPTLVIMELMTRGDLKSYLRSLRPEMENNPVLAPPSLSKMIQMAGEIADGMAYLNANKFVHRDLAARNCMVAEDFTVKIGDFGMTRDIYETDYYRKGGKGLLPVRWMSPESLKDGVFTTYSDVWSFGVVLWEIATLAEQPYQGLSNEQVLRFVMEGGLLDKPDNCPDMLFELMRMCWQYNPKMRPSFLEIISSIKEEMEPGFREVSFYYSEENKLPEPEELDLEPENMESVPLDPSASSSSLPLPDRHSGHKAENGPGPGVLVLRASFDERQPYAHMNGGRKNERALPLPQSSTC
EGFR, sequence (P00533 25-1210): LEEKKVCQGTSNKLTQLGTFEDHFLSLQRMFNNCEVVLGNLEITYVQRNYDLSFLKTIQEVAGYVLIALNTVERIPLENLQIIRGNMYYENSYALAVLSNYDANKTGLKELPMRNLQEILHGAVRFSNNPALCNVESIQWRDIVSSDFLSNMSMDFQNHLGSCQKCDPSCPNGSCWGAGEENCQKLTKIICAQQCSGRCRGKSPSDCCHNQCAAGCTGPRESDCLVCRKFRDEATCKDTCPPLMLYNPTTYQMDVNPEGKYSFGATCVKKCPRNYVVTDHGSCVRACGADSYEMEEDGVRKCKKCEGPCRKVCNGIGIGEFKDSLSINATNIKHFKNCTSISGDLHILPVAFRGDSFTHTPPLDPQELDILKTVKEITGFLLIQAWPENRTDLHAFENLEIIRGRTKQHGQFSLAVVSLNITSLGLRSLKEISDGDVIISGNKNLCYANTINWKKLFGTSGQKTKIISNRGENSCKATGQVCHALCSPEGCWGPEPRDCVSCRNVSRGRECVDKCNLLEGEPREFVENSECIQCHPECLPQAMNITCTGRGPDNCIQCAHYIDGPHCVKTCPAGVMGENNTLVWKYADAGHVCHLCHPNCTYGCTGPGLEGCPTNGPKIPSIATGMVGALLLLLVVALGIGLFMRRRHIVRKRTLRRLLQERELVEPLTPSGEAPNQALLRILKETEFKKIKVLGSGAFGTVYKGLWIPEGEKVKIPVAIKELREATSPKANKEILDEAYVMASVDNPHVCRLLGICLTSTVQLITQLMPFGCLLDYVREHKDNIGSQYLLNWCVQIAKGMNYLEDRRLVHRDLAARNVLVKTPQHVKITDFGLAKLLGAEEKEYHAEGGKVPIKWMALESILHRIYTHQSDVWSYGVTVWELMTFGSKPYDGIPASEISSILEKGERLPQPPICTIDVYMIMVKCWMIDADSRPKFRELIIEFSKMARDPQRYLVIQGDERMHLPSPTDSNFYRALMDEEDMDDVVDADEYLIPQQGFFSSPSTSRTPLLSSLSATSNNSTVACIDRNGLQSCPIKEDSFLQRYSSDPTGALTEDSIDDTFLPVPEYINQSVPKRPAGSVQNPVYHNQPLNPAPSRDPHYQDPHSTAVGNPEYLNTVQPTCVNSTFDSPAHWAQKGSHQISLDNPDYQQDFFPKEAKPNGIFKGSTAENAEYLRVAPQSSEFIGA

What is called inhibition is how much of the control response was suppressed. Read a high inhibition as a strong effect. As to `COc1ccccc1/C=C/c1nc(Nc2ccc3c(c2)OCO3)c2ccccc2n1` [IS20, N-(1,3-benzodioxol-5-yl)-2-[(E)-2-(2-methoxyphenyl)vinyl] quinazolin-4-amine], the inhibition at 1 µM was 25 to 30% at EGFR, 40% in test [1] and 25 to 30% on HER2.

Source of the values: article PMC12062220, “Unveiling the role of Ndrg1 gene on the oxidative stress induction behind the anticancer potential of styrylquinazoline derivatives” (Scientific Reports, 2025).
